Data set [1] concerns Sphaerotheca fuliginea. Description: Sphaerotheca test (cucumber)/protective. The format is in vivo. The note with it: Podosphaera fuliginea, 168 h, read-out: Efficacy in %. The protocol: Sphaerotheca Test (Cucumber)/Protective
• Solvents: 24.5 parts by weight of acetone • 24.5 parts by weight of N,N-dimethylacetamide • Emulsifier: 1 part by weight of alkylaryl polyglycol ether
(§1) To produce a suitable preparation of active compound, 1 part by weight of active compound is mixed with the stated amounts of solvents and emulsifier, and the concentrate is diluted with water to the desired concentration.
To test for protective activity, young cucumber plants are sprayed with the preparation of active compound at the stated application rate. After the spray coating has dried on, the plants are inoculated with an aqueous spore suspension of Sphaerotheca fuliginea. The plants are then placed in a greenhouse at about 23° C. and a relative atmospheric humidity of about 70%.
(§2) Evaluation is carried out 7 days after the inoculation. 0% means an efficacy which corresponds to that of the control, whereas an efficacy of 100% means that no infection is observed.

Data set [2] concerns Venturia inaequalis. Description: Venturia test (apple)/protective. The format is in vivo. Particulars: apple plants, protective spray, application rate 100 g/ha, evaluation 10 days after inoculation. The method, then:
Venturia Test (Apple)/Protective
• Solvents: 2.5 parts by weight of acetone • 24.5 parts by weight of dimethylacetamide • Emulsifier: 1.0 part by weight of alkylaryl polyglycol ether
as §1
To test for protective activity, young plants are sprayed with the preparation of active compound at the stated application rate. After the spray coating has dried on, the plants are inoculated with an aqueous conidia suspension of the apple scab pathogen Venturia inaequalis and then remain in an incubation cabinet at about 20° C. and 100% relative atmospheric humidity for 1 day.
The plants are then placed in a greenhouse at about 21° C. and a relative atmospheric humidity of about 90%.
(§3) Evaluation is carried out 10 days after the inoculation. 0% means an efficacy which corresponds to that of the control, whereas an efficacy of 100% means that no infection is observed.

For data set [3], the system named is Puccinia recondita. Description: Puccinia test (wheat)/protective. Format: in vivo. Particulars: wheat plants, protective spray, application rate 500 g/ha, evaluation 10 days after inoculation. The protocol:
Puccinia Test (Wheat)/Protective
• Solvent: 25 parts by weight of N,N-dimethylacetamide • Emulsifier: 0.6 part by weight of alkylaryl polyglycol ether
(§4) To produce a suitable preparation of active compound, 1 part by weight of active compound is mixed with the stated amounts of solvent and emulsifier, and the concentrate is diluted with water to the desired concentration.
To test for protective activity, young plants are sprayed with the preparation of active compound at the stated application rate. After the spray coating has dried on, the plants are sprayed with a conidia suspension of Puccinia recondita. The plants remain in an incubation cabin at about 20° C. and 100% relative atmospheric humidity for 48 hours.
The plants are then placed in a greenhouse at a temperature of about 20° C. and a relative atmospheric humidity of 80% to promote the development of rust pustules.
as §3

Data set [4] can be described thus: logP determination by HPLC on reversed-phase column (EEC directive 79/831 Annex V.A8). The format is physicochemical. The note with it: reversed-phase C18 HPLC column, pH 2.3, C 18 reversed-phase, 43° C., 0.1% aqueous phosphoric acid/acetonitrile gradient. The protocol:
The logP values given in the Preparation Examples were determined in accordance with EEC directive 79/831 Annex V.A8 by HPLC (High Performance Liquid Chromatography) on a reversed-phase column (C 18). Temperature: 43° C.
Mobile phases for the determination in the acidic range: 0.1% aqueous phosphoric acid, acetonitrile; linear gradient from 10% acetonitrile to 90% acetonitrile.
Calibration was carried out using unbranched alkan-2-ones (having 3 to 16 carbon atoms) with known logP values (determination of the logP values by the retention times using linear interpolation between two successive alkanones).

The test system of data set [5] is Alternaria solani. Nature of the data set: Alternaria test (tomato)/protective. The format is in vivo. The note with it: tomato plants, protective spray, application rate 750 g/ha, evaluation 7 days after inoculation. The protocol:
Alternaria Test (Tomato)/Protective
• Solvent: 49 parts by weight of N,N-dimethylformamide • Emulsifier: 1 part by weight of alkylaryl polyglycol ether
as §4
To test for protective activity, young tomato plants are sprayed with the preparation of active compound at the stated application rate. 1 day after the treatment, the plants are inoculated with a spore suspension of Alternaria solani. The plants then remain at 100% relative atmospheric humidity and 20° C. for 24 hours. Subsequently, the plants remain at 96% relative atmospheric humidity and a temperature of 20° C.
as §2

Where [6] appears, read: cucumber plants, protective spray, application rate 100 g/ha, evaluation 7 days after inoculation.

Where two headings read alike, the source gives them in different places.

What is called chromatographic logP is a lipophilicity value derived from retention on a column. A lower chromatographic logP goes with a more hydrophilic compound.

Consider `Cc1nc(C(F)F)c(C(=O)Nc2ccccc2C2CCCCC2)s1` [Example 1, N-(2-cyclohexylphenyl)-4-(difluoromethyl)-2-methyl-1,3-thiazole-5-carboxamide], for which, in data set [1] (setting [6]), the pest or weed control at 100 g/ha turned out to be 89%. The Efficacy in % in data set [2] and in data set [3] was 100% each time. The compound also had a chromatographic logP in data set [4] of 3.5.

With `Cc1nc(C(F)F)c(C(=O)Nc2ccccc2C2CC3CCC2C3)s1` (stereo not shown) [Example 2, N-(2-bicyclo[2.2.1]hept-2-ylphenyl)-4-(difluoromethyl)-2-methyl-1,3-thiazole-5-carboxamide], the pest or weed control at 100 g/ha in data set [1] is 100%. Besides, the Efficacy in % in data set [2] and in data set [3] was 100% in each case. Besides, the chromatographic logP in data set [4] is 3.63.

`Cc1nc(C(F)F)c(C(=O)Nc2ccc(F)cc2C2CCCC2)s1` [Example 6]: in data set [1] (setting [6]), the pest or weed control at 100 g/ha was 88%. The Efficacy in % in data set [2] is on record as 99%. For the same compound, in data set [4], the chromatographic logP is 3.24.

As for `Cc1nc(C(F)F)c(C(=O)Nc2ccccc2C2CCCCCCC2)s1` [Example 8], the pest or weed control at 100 g/ha in data set [1] (setting [6]) stood at 93%. The Efficacy in % in data set [2] and in data set [3] was 100% in each case. The same compound came in with a chromatographic logP in data set [4] of 4.06.

Consider `Cc1nc(C(F)F)c(C(=O)Nc2ccc(Br)cc2C2CC3CCC2C3)s1` (stereo not shown) [Example 14], for which, in data set [1] (setting [6]), the pest or weed control at 100 g/ha was 100%. In addition, the Efficacy in % worked out at 100% in data set [2] and 95% in data set [5]. The chromatographic logP in data set [4] was found to be 4.27.

As for `Cc1nc(C(F)F)c(C(=O)Nc2ccccc2C2CCC[C@@H](C)C2)s1` (stereo partly shown) [Example 18], in data set [1] (setting [6]), the pest or weed control at 100 g/ha stood at 100%. For the same compound, the Efficacy in % in data set [2] and in data set [5] was 100% each time. The chromatographic logP in data set [4] stood at 3.88.

On to `Cc1nc(C(F)F)c(C(=O)N(C)c2ccccc2C2CC3CCC2C3)s1` (stereo not shown) [Example 19], for which the pest or weed control at 100 g/ha in data set [1] (setting [6]) was 98%. Also, the chromatographic logP in data set [4] is 3.96.

For `Cc1nc(C(F)F)c(C(=O)N(C)c2ccccc2C2CCCCC2)s1` [Example 20], the pest or weed control at 100 g/ha in data set [1] (setting [6]) was 100%. For the same compound, the chromatographic logP in data set [4] came to 3.85.

Turning to `CC(=O)N(C(=O)c1sc(C)nc1C(F)F)c1ccccc1C1CC2CCC1C2` (stereo not shown) [Example 21], the pest or weed control at 100 g/ha in data set [1] (setting [6]) worked out at 98%. Moreover, the Efficacy in % is 96% in data set [2] and 100% in data set [5]. In data set [4], this compound returned a chromatographic logP of 3.95.

With `CC(=O)N(C(=O)c1sc(C)nc1C(F)F)c1ccccc1C1CCCCC1` [Example 22], in data set [1] (setting [6]), the pest or weed control at 100 g/ha came to 96%. Moreover, the Efficacy in % in data set [3] was 93%. For the same compound, in data set [4], the chromatographic logP is 3.86.
